Results: patent US7060292B2, “Lipid structures and uses thereof” (GESynthesis, Inc., priority 2001, dated 2006)

How the values were obtained:
[1] = Stein 1985; cited from earlier work
[2] = Movement across bilayer into vesicle interior containing cyclodextrin-esterified DPH (permeability coefficient); type: physicochemical
Method: Calculation of permeability coefficient (P). The rate constant (kn) for and maximum extent of (Δm) fluorescence change are determined using direct curve fitting procedures (nonlinear regression) assuming that test substance movement is a simple first order process. Deviation from first-order kinetics may be encountered when test compound movement into, out of, or across the membrane is carrier- or channel-mediated or the drug concentration approaches saturation. […] In general an increasing signal takes the form: Et=Eb+En(1−e^−k^n^t)+En+1(1−e^−k^n+1^t)+. . . and a decreasing signal takes the form: Et=Eb+Ene^−k^n^t+En+1e^−k^n+1^t+. . . , where Et is the fluorescence of the system at time t, En is the fluorescence of the system either at time zero (for a decreasing signal) or infinity (for an increasing signal), Eb is the system fluorescence insensitive to addition or removal of test compound, t is time, and kn is the rate constant describing the rate of fluorescence decrease or increase. If more than one first order process is detected, the second or third processes are characterized by En+1, and kn+1 and by En+2 and kn+2, respectively.
The half-life for test compound movement across the bilayer is computed from the rate constant as t1/2=0.693/kn.
The molar flux (v) of a test compound across the membrane is computed as […]

[3] = pKa and ionization of test compounds; type: physicochemical

CCO [ethanol]
diffusion coefficient Dm, reported value [1]: 1.5×10^−7 cm^−2s^−1
rate constant kn for uptake into vesicle interior ([2]; 10 μg lipid vesicles in 2 ml buffer, 10 μl ethanol): 62.9 per second
diffusion coefficient Dm ([2]; computed from P and K assuming λ=40×10^−8 cm): 3.9×10^−7 cm^−2·s^−1

CCCCCC(=O)O [hexanoic acid]
percentage ionized ([3]; pH 4.0): ~13%
percentage ionized ([3]; pH 7.0): > 99%

CCCCCCO [hexanol]
ionization ([3]; pH 4.0 and pH 7.0): not substantially ionized at either pH
